What follows are compounds tested against T1, Human AhR (Homo sapiens, UniProt P35869) (assay: Transactivation assay in human cell line (in vitro assay 1: antagonism)). Settings: U87 glioblastoma cells, AHR inducible (DRE) firefly luciferase reporter, 150 μM kynurenic acid, 20 hours.
T1 construct: host or cells: U87 glioblastoma cells, stably transfected with DRE-driven firefly luciferase and constitutive renilla reporter constructs
T1 sequence (P35869 11-848): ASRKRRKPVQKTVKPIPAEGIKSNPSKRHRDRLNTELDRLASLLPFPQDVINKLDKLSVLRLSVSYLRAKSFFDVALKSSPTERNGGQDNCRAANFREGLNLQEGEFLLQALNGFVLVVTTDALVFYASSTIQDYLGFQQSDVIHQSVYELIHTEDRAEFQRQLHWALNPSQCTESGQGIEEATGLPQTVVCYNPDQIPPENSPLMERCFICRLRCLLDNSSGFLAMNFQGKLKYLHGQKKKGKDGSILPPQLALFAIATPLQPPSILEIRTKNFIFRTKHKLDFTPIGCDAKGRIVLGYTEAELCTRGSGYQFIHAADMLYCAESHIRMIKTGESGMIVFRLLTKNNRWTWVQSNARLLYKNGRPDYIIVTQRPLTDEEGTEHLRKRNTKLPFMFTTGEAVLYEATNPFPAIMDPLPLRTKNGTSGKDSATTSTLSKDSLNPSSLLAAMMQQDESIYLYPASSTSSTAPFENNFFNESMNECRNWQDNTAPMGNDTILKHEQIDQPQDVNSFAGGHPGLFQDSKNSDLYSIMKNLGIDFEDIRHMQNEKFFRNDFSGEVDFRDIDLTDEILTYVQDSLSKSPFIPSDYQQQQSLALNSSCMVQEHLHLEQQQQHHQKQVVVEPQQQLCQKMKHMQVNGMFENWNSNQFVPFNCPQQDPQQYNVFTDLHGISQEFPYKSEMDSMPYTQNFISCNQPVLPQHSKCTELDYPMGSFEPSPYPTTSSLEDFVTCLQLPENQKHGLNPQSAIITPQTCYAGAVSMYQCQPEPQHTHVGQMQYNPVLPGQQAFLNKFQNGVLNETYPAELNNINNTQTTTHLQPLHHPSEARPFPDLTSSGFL
Type: cell-based
Experimental: Transactivation Assay in Human Cell Line (In Vitro Assay 1)
Transactivation assay was carried out in U87 glioblastoma cells (ATCC) endogenously expressing AHR. In addition the cells were stably transfected with an AHR inducible firefly luciferase reporter gene construct that carried AHR-binding sites (DRE) in its promoter and a renilla reporter gene construct with constitutively active promoter. Kynurenic acid is an endogenous AHR activating ligand and was used to prestimulate test cells prior to testing the antagonistic properties of compounds.
In Vitro Assay 1: Antagonism in Human Cell Line
Firefly luciferase and Renilla activity was determined by the DualGlo Luciferase Assay System (Promega, #2920). Renilla activity was used to assess toxic effects of compounds.

Compound | IC50 [µM]
C[C@@H](CO)NC(=O)c1cc(-c2ccc(OC(F)(F)F)cc2)nc(-c2cccs2)n1 [Example 30, N-[(2S)-1-hydroxypropan-2-yl]-2-(thiophen-2-yl)-6-[4-(trifluoromethoxy)phenyl]pyrimidine-4-carboxamide] | 0.00638
CC(C)(O)CNC(=O)c1cc(-c2ccc(Cl)cc2)nc(-c2cnc(Cl)nc2)n1 [Example 67, 2′-chloro-6-(4-chlorophenyl)-N-(2-hydroxy-2-methylpropyl)[2,5′-bipyrimidine]-4-carboxamide] | 12.6
Cc1ccsc1-c1nc(C(=O)N[C@@H](C)CO)cc(-c2ccc(OC(F)(F)F)cc2)n1 [Example 33, N-[(2S)-1-hydroxypropan-2-yl]-2-(3-methylthiophen-2-yl)-6-[4-(trifluoromethoxy)phenyl]pyrimidine-4-carboxamide] | 0.00925
CC(C)Cn1cc(-c2nc(C(=O)N[C@@H](C)CO)cc(-c3ccc(Cl)cc3)n2)cn1 [Example 77, 6-(4-chlorophenyl)-N-[(2S)-1-hydroxypropan-2-yl]-2-[1-(2-methylpropyl)-1H-pyrazol-4-yl]pyrimidine-4-carboxamide] | 1.18
COc1ccc(-c2nc(C(=O)NCC(C)(C)O)cc(-c3ccc(OC(F)(F)F)cc3)n2)cn1 [Example 14, N-(2-hydroxy-2-methylpropyl)-2-(6-methoxypyridin-3-yl)-6-[4-(trifluoromethoxy)phenyl]pyrimidine-4-carboxamide] | 0.307
COc1ccc(-c2nc(C(=O)N[C@@H](C)CO)cc(-c3ccc(OC(F)(F)F)cc3)n2)cn1 [Example 27, N-[(2S)-1-hydroxypropan-2-yl]-2-(6-methoxypyridin-3-yl)-6-[4-(trifluoromethoxy)phenyl]pyrimidine-4-carboxamide] | 0.438
Cc1noc(C)c1-c1nc(C(=O)NCC(C)(C)O)cc(-c2ccc(Cl)cc2)n1 [Example 56, 6-(4-chlorophenyl)-2-(3,5-dimethyl-1,2-oxazol-4-yl)-N-(2-hydroxy-2-methylpropyl)pyrimidine-4-carboxamide] | 0.965
CC(C)(O)CNC(=O)c1cc(-c2ccc(OC(F)(F)F)cc2)nc(-c2cnn(C3CC3)c2)n1 [Example 26, 2-(1-cyclopropyl-1H-pyrazol-4-yl)-N-(2-hydroxy-2-methylpropyl)-6-[4-(trifluoromethoxy)phenyl]pyrimidine-4-carboxamide] | 3.96
C[C@@H](CO)NC(=O)c1cc(-c2ccc(Cl)cc2)nc(-c2cccs2)n1 [Example 50, 6-(4-chlorophenyl)-N-[(2S)-1-hydroxypropan-2-yl]-2-(thiophen-2-yl)pyrimidine-4-carboxamide] | 0.00591
Cc1n[nH]cc1-c1nc(C(=O)N[C@@H](C)CO)cc(-c2ccc(Cl)cc2)n1 [Example 82, 6-(4-chlorophenyl)-N-[(2S)-1-hydroxypropan-2-yl]-2-(3-methyl-1H-pyrazol-4-yl)pyrimidine-4-carboxamide] | 0.215
Cn1cc(-c2nc(C(=O)N[C@H]3CC[C@H]3O)cc(-c3ccc(OC(F)(F)F)cc3)n2)cn1 (relative stereo) [Example 107, N-[(cis)-2-hydroxycyclobutyl]-2-(1-methyl-1H-pyrazol-4-yl)-6-[4-(trifluoromethoxy)phenyl]pyrimidine-4-carboxamide] | 0.00457
Cn1cc(-c2nc(C(=O)N[C@H]3CCC[C@H]3O)cc(-c3ccc(OC(F)(F)F)cc3)n2)cn1 (relative stereo) [Example 91, N-[(cis)-2-hydroxycyclopentyl]-2-(1-methyl-1H-pyrazol-4-yl)-6-[4-(trifluoromethoxy)phenyl]pyrimidine-4-carboxamide] | 0.00158
Cc1cscc1-c1nc(C(=O)N[C@@H](C)CO)cc(-c2ccc(OC(F)(F)F)cc2)n1 [Example 29, N-[(2S)-1-hydroxypropan-2-yl]-2-(4-methylthiophen-3-yl)-6-[4-(trifluoromethoxy)phenyl]pyrimidine-4-carboxamide] | 0.0152
Cc1cn[nH]c1-c1nc(C(=O)N[C@@H](C)CO)cc(-c2ccc(OC(F)(F)F)cc2)n1 [Example 45, N-[(2S)-1-hydroxypropan-2-yl]-2-(4-methyl-1H-pyrazol-5-yl)-6-[4-(trifluoromethoxy)phenyl]pyrimidine-4-carboxamide] | 0.0572
CC(C)(O)CNC(=O)c1cc(-c2ccc(OC(F)(F)F)cc2)nc(-c2cnc(C#N)nc2)n1 [Example 23, 2′-cyano-N-(2-hydroxy-2-methylpropyl)-6-[4-(trifluoromethoxy)phenyl][2,5′-bipyrimidine]-4-carboxamide] | > 20
COc1ccc(-c2nc(C(=O)NCC(C)(C)O)cc(-c3ccc(Cl)cc3)n2)cn1 [Example 46, 6-(4-chlorophenyl)-N-(2-hydroxy-2-methylpropyl)-2-(6-methoxypyridin-3-yl)pyrimidine-4-carboxamide] | 0.431
C[C@@H](CO)NC(=O)c1cc(-c2ccc(OC(F)(F)F)cc2)nc(-c2ccsc2)n1 [Example 31, N-[(2S)-1-hydroxypropan-2-yl]-2-(thiophen-3-yl)-6-[4-(trifluoromethoxy)phenyl]pyrimidine-4-carboxamide] | 0.0145
Cc1ncc(-c2nc(C(=O)N[C@@H](C)CO)cc(-c3ccc(OC(F)(F)F)cc3)n2)cn1 [Example 42, N-[(2S)-1-hydroxypropan-2-yl]-2′-methyl-6-[4-(trifluoromethoxy)phenyl][2,5′-bipyrimidine]-4-carboxamide] | 0.12
C[C@@H](CO)NC(=O)c1cc(-c2ccc(OC(F)(F)F)cc2)nc(-c2ccc(C#N)nc2)n1 [Example 38, 2-(6-cyanopyridin-3-yl)-N-[(2S)-1-hydroxypropan-2-yl]-6-[4-(trifluoromethoxy)phenyl]pyrimidine-4-carboxamide] | 4.51

More lines, in order of falling IC50, values ahead:

IC50 [µM] | Compound
17.6 | C[C@@H](CO)NC(=O)c1cc(-c2ccc(Cl)cc2)nc(-c2cnc(Cl)nc2)n1 [Example 84, 2′-chloro-6-(4-chlorophenyl)-N-[(2S)-1-hydroxypropan-2-yl][2,5′-bipyrimidine]-4-carboxamide]
6.87 | CC(C)(O)CNC(=O)c1cc(-c2ccc(Cl)cc2)nc(-c2ccc(C#N)nc2)n1 [Example 59, 6-(4-chlorophenyl)-2-(6-cyanopyridin-3-yl)-N-(2-hydroxy-2-methylpropyl)pyrimidine-4-carboxamide]
1.04 | C[C@@H](CO)NC(=O)c1cc(-c2ccc(Cl)cc2)nc(-c2cn[nH]c2)n1 [Example 81, 6-(4-chlorophenyl)-N-[(2S)-1-hydroxypropan-2-yl]-2-(1H-pyrazol-4-yl)pyrimidine-4-carboxamide]
0.972 | C[C@@H](CO)NC(=O)c1cc(-c2ccc(OC(F)(F)F)cc2)nc(-c2cnn(C3CC3)c2)n1 [Example 44, 2-(1-cyclopropyl-1H-pyrazol-4-yl)-N-[(2S)-1-hydroxypropan-2-yl]-6-[4-(trifluoromethoxy)phenyl]pyrimidine-4-carboxamide]
0.355 | Cc1n[nH]cc1-c1nc(C(=O)NCC(C)(C)O)cc(-c2ccc(Cl)cc2)n1 [Example 65, 6-(4-chlorophenyl)-N-(2-hydroxy-2-methylpropyl)-2-(3-methyl-1H-pyrazol-4-yl)pyrimidine-4-carboxamide]
0.342 | COc1ccc(-c2nc(C(=O)N[C@@H](C)CO)cc(-c3ccc(Cl)cc3)n2)cn1 [Example 69, 6-(4-chlorophenyl)-N-[(2S)-1-hydroxypropan-2-yl]-2-(6-methoxypyridin-3-yl)pyrimidine-4-carboxamide]
0.0501 | Cc1nn(C)cc1-c1nc(C(=O)NCC(C)(C)O)cc(-c2ccc(Cl)cc2)n1 [Example 66, 6-(4-chlorophenyl)-2-(1,3-dimethyl-1H-pyrazol-4-yl)-N-(2-hydroxy-2-methylpropyl)pyrimidine-4-carboxamide]
0.0206 | Cn1cc(-c2nc(C(=O)N[C@@H]3CS(=O)(=O)C[C@@H]3O)cc(-c3ccc(OC(F)(F)F)cc3)n2)cn1 (relative stereo) [Example 98, N-[(cis)-4-hydroxy-1,1-dioxo-1lambda^6-thiolan-3-yl]-2-(1-methyl-1H-pyrazol-4-yl)-6-[4-(trifluoromethoxy)phenyl]pyrimidine-4-carboxamide]
0.00499 | Cn1cc(-c2nc(C(=O)NCC3(O)CCC3)cc(-c3ccc(OC(F)(F)F)cc3)n2)cn1 [Example 97, N-[(1-hydroxycyclobutyl)methyl]-2-(1-methyl-1H-pyrazol-4-yl)-6-[4-(trifluoromethoxy)phenyl]pyrimidine-4-carboxamide]

— patent US11304946B2, “2-hetarylpyrimidine-4-carboxamides as aryl hydrocarbon receptor antagonists” (Bayer Aktiengesellschaft, priority 2017, dated 2022)
